From ChEMBL document CHEMBL1201862, “PubChem BioAssay data set” (2004)
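Values below derive from 48-hour exposures of cells grown in 96-well plates, with endpoints linearly interpolated between the two concentrations bracketing the appropriate inhibition level. GI50 = concentration required for 50% inhibition of growth.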 Activity calls are given as the source filed them. No stated cut-off is given here; in the data, active = GI50 up to about 1.1 µM and inactive = higher.

Experiments:
Experiment in all cases: NCI tumour cell line growth inhibition, 48 h
A498 = tested on: A498
A549 = tested on: A549
ACHN = tested on: ACHN
COLO 205 = tested on: COLO 205
HCT-116 = tested on: HCT-116
HCT-15 = tested on: HCT-15
HOP-62 = tested on: HOP-62
HT-29 = tested on: HT-29
LOX IMVI = tested on: LOX IMVI
MCF7 = tested on: MCF7
NCI-H23 = tested on: NCI-H23
OVCAR-4 = tested on: OVCAR-4
OVCAR-5 = tested on: OVCAR-5
PC-3 = tested on: PC-3
SF-268 = tested on: SF-268
SF-295 = tested on: SF-295
SNB-19 = tested on: SNB-19
SR = tested on: SR
HCC 2998 = tested on: HCC 2998
RXF 393 = tested on: RXF 393

| Structure (SMILES) | GI50 (A498) | GI50 (A549) | GI50 (ACHN) | GI50 (COLO 205) | GI50 (HCT-116) | GI50 (HCT-15) [µM] | GI50 (HOP-62) | GI50 (HT-29) | GI50 (LOX IMVI) | GI50 (MCF7) | GI50 (NCI-H23) | GI50 (OVCAR-4) | GI50 (OVCAR-5) | GI50 (PC-3) | GI50 (SF-268) | GI50 (SF-295) | GI50 (SNB-19) | GI50 (SR) | GI50 (HCC 2998) | GI50 (RXF 393) |
| --- | --- | --- | --- | --- | --- | --- | --- | --- | --- | --- | --- | --- | --- | --- | --- | --- | --- | --- | --- | --- |
| COc1cc2oc(=O)cc(C)c2c(OC)c1OC | 30.8 µM (inactive) | > 100 µM (inactive) | > 100 µM (inactive) | > 100 µM (inactive) | > 100 µM (inactive) | > 100 | > 100 µM (inactive) | > 100 µM (inactive) | > 100 µM (inactive) | > 100 µM (inactive) | > 100 µM (inactive) | > 100 µM (inactive) | > 100 µM (inactive) | > 100 µM (inactive) | > 100 µM (inactive) | > 100 µM (inactive) | > 100 µM (inactive) | > 100 µM (inactive) | – | – |
| O=[N+]([O-])c1cc2[nH]nnc2c2nonc12 | – | 61.5 µM (inactive) | 23.4 µM (inactive) | 17.5 µM (inactive) | 20.5 µM (inactive) | 29.2 | 55 µM (inactive) | 29.6 µM (inactive) | 20.1 µM (inactive) | 3.24 µM (inactive) | 26.5 µM (inactive) | 30.1 µM (inactive) | 29 µM (inactive) | 49.4 µM (inactive) | 59 µM (inactive) | 31.7 µM (inactive) | 30.7 µM (inactive) | 6.08 µM (inactive) | 17.9 µM (inactive) | – |
| O=C(Nc1ccc(Cl)cc1)c1cc(S(=O)(=O)Nc2nc3cccnc3[nH]2)c(SSc2cc(Cl)c(C(=O)Nc3ccc(Cl)cc3)cc2S(=O)(=O)Nc2nc3cccnc3[nH]2)cc1Cl | > 100 µM (inactive) | > 100 µM (inactive) | > 100 µM (inactive) | > 100 µM (inactive) | > 100 µM (inactive) | > 100 | > 100 µM (inactive) | > 100 µM (inactive) | > 100 µM (inactive) | > 100 µM (inactive) | > 100 µM (inactive) | > 100 µM (inactive) | > 100 µM (inactive) | > 100 µM (inactive) | > 100 µM (inactive) | > 100 µM (inactive) | > 100 µM (inactive) | – | > 100 µM (inactive) | 28.6 µM (inactive) |
| CCOC(=O)OC1C(Br)C2CCC1(C)C2(C)C (stereo not given) | – | 16 µM (inactive) | 15.3 µM (inactive) | 13 µM (inactive) | 6.44 µM (inactive) | 13.7 | 16.6 µM (inactive) | 6.05 µM (inactive) | 6.59 µM (inactive) | 15 µM (inactive) | 17.2 µM (inactive) | 11.7 µM (inactive) | 17.7 µM (inactive) | 11.3 µM (inactive) | 13.7 µM (inactive) | 15.3 µM (inactive) | 14.6 µM (inactive) | 2.39 µM (inactive) | 12.3 µM (inactive) | 10.9 µM (inactive) |
| Cc1ccsc1/C=N/Nc1nncc2ccccc12 | > 100 µM (inactive) | 96.4 µM (inactive) | > 100 µM (inactive) | > 100 µM (inactive) | > 100 µM (inactive) | > 100 | > 100 µM (inactive) | > 100 µM (inactive) | 97.1 µM (inactive) | 37 µM (inactive) | > 100 µM (inactive) | > 100 µM (inactive) | > 100 µM (inactive) | 34.3 µM (inactive) | 93.3 µM (inactive) | > 100 µM (inactive) | > 100 µM (inactive) | – | > 100 µM (inactive) | 15.8 µM (inactive) |
| Cc1cn(CC2=NCC(O)CN2)c(=O)[nH]c1=O (stereo not given) | > 100 µM (inactive) | > 100 µM (inactive) | > 100 µM (inactive) | > 100 µM (inactive) | > 100 µM (inactive) | > 100 | > 100 µM (inactive) | > 100 µM (inactive) | > 100 µM (inactive) | > 100 µM (inactive) | > 100 µM (inactive) | > 100 µM (inactive) | > 100 µM (inactive) | > 100 µM (inactive) | > 100 µM (inactive) | > 100 µM (inactive) | > 100 µM (inactive) | – | > 100 µM (inactive) | > 100 µM (inactive) |
| COc1cccc(-c2nc(-c3cnccn3)n(COCCO)n2)c1 | – | > 100 µM (inactive) | – | > 100 µM (inactive) | > 100 µM (inactive) | > 100 | > 100 µM (inactive) | > 100 µM (inactive) | > 100 µM (inactive) | > 100 µM (inactive) | > 100 µM (inactive) | > 100 µM (inactive) | > 100 µM (inactive) | > 100 µM (inactive) | > 100 µM (inactive) | > 100 µM (inactive) | > 100 µM (inactive) | > 100 µM (inactive) | > 100 µM (inactive) | > 100 µM (inactive) |
